Here are results for three molecules from the NIST ThermoML archive (doi:10.1021/je900342a).

For data set [1] the following is noted: Crystal; DTA.
Data set [2] can be described thus: Molar enthalpy of transition or fusion. As to conditions: Crystal; DSC.

Numbers after ± are expanded uncertainties.

Turning to `CCCCCCCCCCCCCCCC(=O)OCC(COC(=O)CCCCCCCCCCCCCCC)OC(=O)CCCCCCCCCCCCCCC` [1,2,3-propanetriyl tri(hexadecanoate)], the Normal melting temperature in data set [1] was 67.4 ± 0.5 °C. The “Molar enthalpy of transition or fusion” value in data set [2] amounted to 38.9 ± 1 kcal/mol.
In the case of `CC(C)Cc1ccc(C(C)C(=O)O)cc1` (stereo not given) [ibuprofen], the Normal melting temperature in data set [1] was found to be 74.5 ± 0.5 °C.
Take `CCCCCCCCCCCCCC(=O)O` [tetradecanoic acid]: the Normal melting temperature in data set [1] was found to be 53.1 ± 0.5 °C. Also, the “Molar enthalpy of transition or fusion” value in data set [2] worked out at 10.9 ± 0.287 kcal/mol.
